Results reported in patent publication US4272437A, “Antibacterial agents, and 4-thio azetidinone intermediates” (priority 1979, dated 1981).
Converted amounts (≈) assume the structure as drawn. Like-named read-outs stand apart in the source and are kept apart here.

Legend:
Ser. marcescens A-20019 = test: MIC, tube dilution, Serratia marcescens A20019; type: cell-based; details: Serratia marcescens, A20019, Serratia marcescens A20019; overnight 37° C.; read-out: Minimum Inhibitory Concentration (M.I.C.)
From the text: (§1) Representative compounds of the present invention were subjected to in vitro antibiotic screening against a variety of microorganisms.

Pr. morganii A-15153 = test: MIC, tube dilution, Proteus morganii A15153; type: cell-based; details: Morganella morganii, A15153, Proteus morganii A15153; overnight 37° C.; read-out: Minimum Inhibitory Concentration (M.I.C.)
From the text: as §1

Str. pyogenes A-9604 = test: MIC, tube dilution, Streptococcus pyogenes A9604; type: cell-based; details: Streptococcus pyogenes, A9604, Str. pyogenes A9604; overnight 37° C., Nutrient Broth; read-out: Minimum Inhibitory Concentration (M.I.C.)
From the text: as §1

Pr. mirabilis A-9900 = test: MIC, tube dilution, Proteus mirabilis A9900; type: cell-based; details: Proteus mirabilis, A9900, Proteus mirabilis A9900; overnight 37° C.; read-out: Minimum Inhibitory Concentration (M.I.C.)
From the text: as §1

[1] = tested on: Klebsiella species A20468; test: MIC, tube dilution, Klebsiella species A20468; type: cell-based; details: Klebsiella species (K. pneumoniae) A20468; overnight 37° C.; read-out: Minimum Inhibitory Concentration (M.I.C.)
From the text: as §1

E. coli A-15119 = test: MIC, tube dilution, Escherichia coli A15119; type: cell-based; details: Escherichia coli, A15119, E. coli A15119; overnight 37° C.; read-out: Minimum Inhibitory Concentration (M.I.C.)
From the text: as §1

Proteus vulgaris A9555 = test: MIC, tube dilution, Proteus vulgaris (mirabilis) A9555; type: cell-based; details: overnight 37° C., read-out: Minimum Inhibitory Concentration (M.I.C.)
From the text: as §1

[2] = tested on: Staph. aureus (Pen-Res) A-9606; test: MIC, tube dilution, Staphylococcus aureus A9606 (Pen-Res); type: cell-based; details: Staphylococcus aureus, Staph. aureus A9606 (Pen-Res); overnight 37° C.; read-out: Minimum Inhibitory Concentration (M.I.C.)
From the text: as §1

Staph. aureus A-9537 = test: MIC, tube dilution, Staphylococcus aureus A9537; type: cell-based; details: Staphylococcus aureus, A9537, Staph. aureus A9537; overnight 37° C., Nutrient Broth; read-out: Minimum Inhibitory Concentration (M.I.C.)
From the text: as §1

K. pneumoniae A-15130 = test: MIC, tube dilution, Klebsiella pneumoniae A15130; type: cell-based; details: Klebsiella pneumoniae, A15130, K. pneumoniae A15130; overnight 37° C.; read-out: Minimum Inhibitory Concentration (M.I.C.)
From the text: as §1

[3] = tested on: Staph. aureus A-9537 and 50% serum; test: MIC, tube dilution, Staph. aureus A9537 + 50% serum; type: cell-based, Staphylococcus aureus; details: Staphylococcus aureus, overnight 37° C., read-out: Minimum Inhibitory Concentration (M.I.C.)
From the text: as §1

Str. pneumoniae A-9585 = test: MIC, tube dilution, Streptococcus pneumoniae A9585; type: cell-based; details: Streptococcus pneumoniae, A9585, Str. pneumoniae A9585; overnight 37° C., Nutrient Broth; read-out: Minimum Inhibitory Concentration (M.I.C.)
From the text: as §1

Ent. cloacae A-9656 = test: MIC, tube dilution, Enterobacter cloacae A9656; type: cell-based; details: Enterobacter cloacae, A9656, Enterobacter cloacae A9656; overnight 37° C.; read-out: Minimum Inhibitory Concentration (M.I.C.)
From the text: as §1

Ps. aeruginosa A-21213 = test: MIC, tube dilution, Pseudomonas aeruginosa A21213; type: cell-based; details: overnight 37° C., read-out: Minimum Inhibitory Concentration (M.I.C.)
From the text: as §1

[4] = tested on: Staph. aureus (Meth-Res) A-15097; test: MIC, tube dilution, Staphylococcus aureus A15097 (Meth-Res); type: cell-based; details: Staphylococcus aureus, Staph. aureus A15097 (Meth-Res); overnight 37° C.; read-out: Minimum Inhibitory Concentration (M.I.C.)
From the text: as §1

Ent. cloacae A-9659 = test: MIC, tube dilution, Enterobacter cloacae A9659; type: cell-based; details: Enterobacter cloacae, A9659, Enterobacter cloacae A9659; overnight 37° C.; read-out: Minimum Inhibitory Concentration (M.I.C.)
From the text: as §1

Ps. aeruginosa A-9843A = test: MIC, tube dilution, Pseudomonas aeruginosa A9843A; type: cell-based; details: Pseudomonas aeruginosa, A9843A, read-out: Minimum Inhibitory Concentration (M.I.C.), Pseudomonas aeruginosa A9843A; overnight 37° C.
From the text: as §1

Proteus rettgeri A21203 = test: MIC, tube dilution, Proteus rettgeri A21203; type: cell-based; details: Providencia rettgeri, A21203, Proteus rettgeri A21203; overnight 37° C.; read-out: Minimum Inhibitory Concentration (M.I.C.)
From the text: as §1

Str. faecalis A-20688 = test: MIC, tube dilution, Streptococcus faecalis A20688; type: cell-based; details: Enterococcus faecalis, A20688, Str. faecalis A20688; overnight 37° C.; read-out: Minimum Inhibitory Concentration (M.I.C.)
From the text: as §1

E. coli A-20341-1 = test: MIC, tube dilution, Escherichia coli A20341-1; type: cell-based; details: Escherichia coli, A203411, E. coli A20341-1; overnight 37° C.; read-out: Minimum Inhibitory Concentration (M.I.C.)
From the text: as §1

Pr. vulgaris A-9716 = test: MIC, tube dilution, Proteus vulgaris / Proteus mirabilis A9716; type: cell-based, Proteus vulgaris (name changed to Proteus mirabilis); details: Proteus vulgaris, A9716, Proteus vulgaris / Proteus mirabilis A9716; overnight 37° C.; read-out: Minimum Inhibitory Concentration (M.I.C.)
From the text: as §1

[5] = stability in aqueous solution followed by UV; type: physicochemical; design: unit not given here; details: for ε at λmax 255 in aqueous solution (stability) / ε at λmax 307 in aqueous solution (stability) / ε at λmax 254 in aqueous solution (stability): UV
Procedure: To a solution of penem 3 (2.4 g, 6.89 mmoles) in tetrahydrofuran-ether-water mixture (1:1:1, 165 ml) was added 30% palladium on diatomaceous earth (4.8 g). The reaction mixture was hydrogenated under 45 p.s.i. at 23° C. for 2.5 h and filtered over celite pad. The filtrate and washings were combined, washed twice with ether, centrifugated and filtered several times to give a clear solution which was lyophilized; 0.622 g, 45%. The crystallization of the compound was induced by the addition of water (0.8 ml); the suspension was centrifuged and the water was removed leaving an orange solid. This solid was washed twice with water and a slightly yellow solid was obtained after drying: […], 19.8%. UV λmax^H.sbsp.2^O : 307 (ε=4318) and 257 (ε=2650). Some crude starting material (1.2 g, 50%) was recovered. The compound (50 mg) can also be purified by column chromatography [Sephadex G10, column size: 1.6×100 cm, flow rate: 10 ml/h, eluent: distilled water, fraction volume: 1.5 ml, detector: refractive index]. UV λmax^H.sbsp.2^O 307 (ε=3597) and 255 (ε=2424).
The stability of the compound in aqueous solution was checked by:
A sample of compound 4 was kept at 23° C. for 3 days and the UV was taken: UV λmax^H.sbsp.2^O : 307 (ε=3055) and 255 (ε=2008).
To a solution of ester 6 (200 mg, 0.5 mmole) in tetrahydrofuran (10 ml) was added ether (10 ml), water (10 ml) and 30% palladium on diatomaceous earth (200 mg). The reaction mixture was hydrogenated in a Parr apparatus under 35 p.s.i. at 25° C. for 2 h 30 min and filtered over a celite pad. The filtrate was washed twice with ether and the aqueous solution was lyophilized, giving a yellow powder which was purified by column chromatography [Sephadex G-10, bed dimensions: 100×1.6 cm, flow rate: 12 ml/h, eluent: distilled water, fraction volume: 1.5 ml detector: refractive index]. The right fractions were combined and lyophilized to give a white powder (10 mg, 8.8%). UV λmax^H.sbsp.2 O 301 (ε=4930), 258 (ε=3290). IR (KBr) cm^-1 :1770 (c=o of β-lactam) and 1580 [drawing 587] The stability of compound 7 in aqueous solution was followed by UV; after 6 h: 301 (4795) and 258 (3105) and after 72 h: 301 (4565) and 258 (3150). […]

[6] = sample kept at 23° C. for 3 days, UV in H2 O

Compound | MIC (Ser. marcescens A-20019) [µg/mL] | MIC (Pr. morganii A-15153) [µg/mL] | MIC (Str. pyogenes A-9604) [µg/mL] | MIC (Pr. mirabilis A-9900) [µg/mL] | MIC [1] [µg/mL] | MIC (E. coli A-15119) [µg/mL] | MIC [2] [µg/mL] | MIC (Staph. aureus A-9537) [µg/mL] | MIC (K. pneumoniae A-15130) [µg/mL] | MIC [3] [µg/mL] | MIC (Str. pneumoniae A-9585) [µg/mL] | MIC (Ent. cloacae A-9656) [µg/mL] | MIC [4] [µg/mL] | MIC (Ent. cloacae A-9659) [µg/mL] | MIC (Ps. aeruginosa A-9843A) [µg/mL] | MIC (Proteus rettgeri A21203) [µg/mL] | MIC (Str. faecalis A-20688) [µg/mL] | MIC (E. coli A-20341-1) [µg/mL] | other results
CC1=C(C(=O)O)N2C(=O)[C@@H](CO)[C@H]2S1 (relative stereo) [Example 68, trans 6-Hydroxymethyl-2-methylpenem-3-carboxylic Acid] | 63 (≈ 293 µM) | 125 (≈ 581 µM) | 16 (≈ 74.3 µM) | 63 (≈ 293 µM) | 125 (≈ 581 µM) | 63 (≈ 293 µM) | 63 (≈ 293 µM) | 16 (≈ 74.3 µM) | 63 (≈ 293 µM) | > 63 | 4 (≈ 18.6 µM) | 63 (≈ 293 µM) | 63 (≈ 293 µM) | 63 (≈ 293 µM) | 125 (≈ 581 µM) | 63 (≈ 293 µM) | 125 (≈ 581 µM) | 63 (≈ 293 µM) | MIC (Proteus vulgaris A9555): 63 µg/mL (≈ 293 µM); MIC (Ps. aeruginosa A-21213; Pseudomonas aeruginosa A21213): 125 µg/mL (≈ 581 µM)
NCC1=C(C(=O)O)N2C(=O)CC2S1 (centres unmarked) [Example 16, 2-Aminomethylpenem-3-carboxylic Acid] | 8 (≈ 40 µM) | 1 (≈ 4.99 µM) | 4 (≈ 20 µM) | 2 (≈ 9.99 µM) | 125 (≈ 624 µM) | 4 (≈ 20 µM) | 8 (≈ 40 µM) | 2 (≈ 9.99 µM) | 8 (≈ 40 µM) | 32 | 1 (≈ 4.99 µM) | 8 (≈ 40 µM) | 63 (≈ 315 µM) | 8 (≈ 40 µM) | 1 (≈ 4.99 µM) | 1 (≈ 4.99 µM) | > 125 | 16 (≈ 79.9 µM) | MIC (Pr. vulgaris A-9716): 2 µg/mL (≈ 9.99 µM); MIC (Ps. aeruginosa A-21213; Pseudomonas aeruginosa, A21213, Pseudomonas aeruginosa A21213): 1 µg/mL (≈ 4.99 µM); ε at λmax 255 in aqueous solution (stability) ([5]; 6 h): 2773; ε at λmax 307 in aqueous solution (stability) ([5]; 6 h): 3545; ε at λmax 255 in aqueous solution (stability) ([5]; 21 h): 2411; ε at λmax 307 in aqueous solution (stability) ([5]; 21 h): 3467; ε at λmax 254 in aqueous solution (stability) ([5]; 28 h): 2398; ε at λmax 307 in aqueous solution (stability) ([5]; 28 h): 3337; ε at λmax 254 in aqueous solution (stability) ([5]; 46 h): 2398; ε at λmax 307 in aqueous solution (stability) ([5]; 46 h): 3259; ε at λmax 307 in aqueous solution (stability) ([5]; 70 h): 3076; ε at λmax 307 in aqueous solution (stability) ([5]; 94 h): 2842; ε at λmax 307 in aqueous solution (stability) ([5]; 170 h): 1900; ε at λmax 255 (stability of stored sample) [5, 6]: 2008; ε at λmax 307 (stability of stored sample) [5, 6]: 3055
